Data set [1] has as its system murine NPcis (NF1^+/−;p53^+/−) tumor cells. Kind of data set: Tumor growth in murine sarcoma model (subcutaneous NPcis flank tumors). It is filed as in vivo, mouse. As for the experimental part:
(§1) C57BL/6 mice at 10 weeks of age between 25 g and 30 g were obtained from Envigo. To induce solid tumor growth in animals, 3-5 million murine NPcis (NF1^+/−;p53^+/−) tumor cells grown and harvested from cell culture, were injected subcutaneously to the right flank. […] Animals were then randomly assigned to a treatment arm: Vehicle or MK-905 (n=10/group; average tumor volume of ˜200 mm^3). […] Tumor volume was calculated by the formula: volume=(L×(W^2))/2. […]

The nature of data set [2]: ALT (liver inflammation marker) and animal weight in sarcoma-model mice. As for the experimental part: as §1
A further data set deals with healthy NSG mice. To be noted: for mice survived >2 weeks: 40 mg/kg group; for Mice surviving >2 weeks: 5 d/week, i.p., healthy female NSG mice, n=5/group. As for the experimental part:
Animal weights and body condition scores were measured three times per week. After twenty one days, surviving mice were euthanized and blood collected for clinical chemistry measurements (complete blood count with differential, clinical chemistries). […] 80% of mice survived >2 weeks in the MK-905 40 mg/kg group, and 100% of mice survived the study in the vehicle and MK-905 20 mg/kg groups.

The test system of data set [3] is NALM6-Luc-mCh-Puro human acute lymphoblastic leukemia. As to the kind of experiment: In vivo antitumor efficacy, NALM6-Luc-mCh-Puro leukemia in female NSG mice (BLI). To be noted: MK-905 40 then 20 mg/kg i.p./day, 6-MP 20 then 10 mg/kg i.p./day; for day 15 mean BLI signal: 5 days/week, vehicle 1.65×10^10; for percent of the median vehicle group tumor BLI signal: day 15. As for the experimental part: (§2) The in vivo antitumor efficacy of MK-905 was evaluated in the NALM6-Luc-mCh-Puro human acute lymphoblastic leukemia in female NSG mice. Mice were inoculated with tumor cells on day 0, staged by BLI on day 3, and sorted into matched treatment groups. The primary endpoint of the study was tumor bioluminescence imaging (BLI) signal. Secondary endpoints included: animal survival, weight changes, and clinical pathology markers. Single timepoint drug metabolite testing was conducted after the first dose of MK-905. Studies were run in comparison to vehicle or 6-MP treatment.

A short description of data set [4]: Single timepoint drug metabolite testing (6-TGMP in mouse plasma) after first dose. Conditions: two hours following initial dose. It is filed as in vivo. How it is done: as §2

Where two headings read alike, the source gives them in different places. Where only a bound is given, the exact number is not on record here.

Regarding `Sc1ncnc2nc[nH]c12` [6-MP, 6-mercaptopurine, reference compound], in data set [1] (6-MP 20 mg/kg i.p., following ten days of dosing, vehicle 2,038 mm^3), the mean tumor volume is listed as 1,107 mm^3. In data set [2] (at sacrifice, 6-MP 20 mg/kg i.p., ten days), the “blood ALT increase compared to vehicle-treated mice” value is “two-fold increased”. The “blood ALT as a marker of liver inflammation” value in data set [2] (at sacrifice, 6-MP 20 mg/kg i.p., ten days, vehicle 20 U/L) worked out at 46 U/L. The “mice survived >2 weeks” value with healthy NSG mice (healthy NSG mice) is reported as “no mice surviving”. Besides, in data set [3], the “day 15 mean BLI signal” value is on record as 1.36×10^10 photons/sec and the “percent of the median vehicle group tumor BLI signal” value was determined as 77%. Moreover, in data set [4], the “conversion to the active 6-thioguanine monophosphate (6-TGMP) metabolite” value is listed as “no active metabolite was observed”.

For `CC(C)OC(=O)[C@H](C)NP(=O)(OC[C@H]1OC(n2cnc3c(=S)[nH]c(N)nc32)C(O)C1O)Oc1ccccc1` (stereo partly drawn) [MK-905], the mean tumor volume in data set [1] (MK-905 13 mg/kg i.p., following fourteen days of dosing, vehicle 1,657 mm^3) is 415 mm^3. Besides, the “Tumor weights at sacrifice” value in data set [1] (MK-905 13 mg/kg i.p., fourteen days, vehicle 1276 mg) came to 359 mg. Besides, in data set [2] (MK-905 13 mg/kg i.p., fourteen days), the “Animal weights relative to starting weight” value is recorded as not above 10%. In data set [2] (MK-905 13 mg/kg i.p., fourteen days, versus vehicle), the “Serum ALT as a marker of liver inflammation (in words)” value is “normal and not significantly different”. Also, in the data set with healthy NSG mice (20 mg/kg group, healthy NSG mice, twenty one days), the “mice survived the study” value was 100%. In the data set on healthy NSG mice (20 mg/kg), the “Mice surviving >2 weeks” value is recorded as 5/5. Also, in the data set on healthy NSG mice (healthy NSG mice), the “mice survived >2 weeks” value came to 80%. For the same compound, the “Mice surviving >2 weeks” value in the data set with healthy NSG mice (40 mg/kg) is listed as 4/5. In addition, in data set [3], the “day 15 mean BLI signal” value is reported as 3.27×10^8 photons/sec and the “percent of the median vehicle group tumor BLI signal” value amounted to 1.3%. Moreover, the “conversion to the active 6-thioguanine monophosphate (6-TGMP) metabolite” value in data set [4] is “observed”.

The values are drawn from patent US20240024347A1 (The Johns Hopkins University, priority 2020, published 2024).
